In ChEMBL document CHEMBL1201862, “PubChem BioAssay data set” (2004):
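48-hour exposure; five concentrations; linearly interpolated endpoints. GI50 is the concentration that inhibits growth by half.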 The source made the active and inactive calls. Rule as the data show it: active = GI50 up to about 1.1 µM and inactive = higher.

Tests used:
Test in all cases: NCI-60 cell line screen, 48 h
A498 = tested on: A498
HOP-92 = tested on: HOP-92
OVCAR-8 = tested on: OVCAR-8
Malme-3M = tested on: Malme-3M
SF-295 = tested on: SF-295
NCI/ADR-RES = tested on: NCI/ADR-RES
OVCAR-3 = tested on: OVCAR-3
DU-145 = tested on: DU-145
SK-MEL-2 = tested on: SK-MEL-2
NCI-H226 = tested on: NCI-H226
OVCAR-5 = tested on: OVCAR-5
UACC-62 = tested on: UACC-62
SNB-75 = tested on: SNB-75
IGROV-1 = tested on: IGROV-1
SK-OV-3 = tested on: SK-OV-3
SNB-19 = tested on: SNB-19
HCT-116 = tested on: HCT-116
KM12 = tested on: KM12
SK-MEL-5 = tested on: SK-MEL-5
NCI-H23 = tested on: NCI-H23

Measured: GI50

O=C1Nc2ccccc2/C1=N/NC(=S)Nc1ccc(Cl)cc1
inactive: A498 18.3 µM | HOP-92 51.4 µM | OVCAR-8 18.2 µM | Malme-3M 9.62 µM | SF-295 23.7 µM | NCI/ADR-RES 12.1 µM | OVCAR-3 25.8 µM | DU-145 > 100 µM | SK-MEL-2 24.5 µM | NCI-H226 22.2 µM | OVCAR-5 64.6 µM | UACC-62 50.7 µM | SNB-75 33 µM | IGROV-1 26.6 µM | SK-OV-3 38.5 µM | SNB-19 41.8 µM | HCT-116 24.9 µM | KM12 5.77 µM | SK-MEL-5 17.2 µM | NCI-H23 57.4 µM

CC(=O)Nc1ccc(Nc2nc(=O)[nH]c(=O)[nH]2)cc1
inactive: A498 > 100 µM | HOP-92 > 100 µM | OVCAR-8 > 100 µM | Malme-3M > 100 µM | SF-295 > 100 µM | NCI/ADR-RES > 100 µM | OVCAR-3 > 100 µM | DU-145 > 100 µM | SK-MEL-2 > 100 µM | NCI-H226 > 100 µM | OVCAR-5 > 100 µM | UACC-62 > 100 µM | SNB-75 > 100 µM | IGROV-1 > 100 µM | SK-OV-3 > 100 µM | SNB-19 > 100 µM | HCT-116 > 100 µM | KM12 > 100 µM | SK-MEL-5 > 100 µM | NCI-H23 > 100 µM

C#CCn1c(I)cc2c(c1=O)COC(=O)[C@]2(O)CC
inactive: A498 > 100 µM | HOP-92 > 100 µM | OVCAR-8 > 100 µM | Malme-3M > 100 µM | SF-295 > 100 µM | NCI/ADR-RES > 100 µM | OVCAR-3 > 100 µM | DU-145 > 100 µM | SK-MEL-2 > 100 µM | NCI-H226 > 100 µM | OVCAR-5 > 100 µM | UACC-62 > 100 µM | SNB-75 > 100 µM | IGROV-1 > 100 µM | SK-OV-3 > 100 µM | SNB-19 > 100 µM | HCT-116 > 100 µM | KM12 > 100 µM | SK-MEL-5 > 100 µM | NCI-H23 > 100 µM

Cc1cn(CCCCCCC2=NCCCN2)c(=O)[nH]c1=O
inactive: A498 > 100 µM | HOP-92 > 100 µM | OVCAR-8 > 100 µM | Malme-3M > 100 µM | SF-295 > 100 µM | NCI/ADR-RES > 100 µM | OVCAR-3 > 100 µM | DU-145 > 100 µM | SK-MEL-2 > 100 µM | NCI-H226 > 100 µM | OVCAR-5 > 100 µM | UACC-62 > 100 µM | SNB-75 > 100 µM | IGROV-1 > 100 µM | SK-OV-3 > 100 µM | SNB-19 > 100 µM | HCT-116 > 100 µM | KM12 > 100 µM | SK-MEL-5 > 100 µM | NCI-H23 > 100 µM

CCOC(=O)c1ccc(NCc2ccc3nc(OC)c(OC)nc3c2)cc1
inactive: A498 > 100 µM | HOP-92 58.3 µM | OVCAR-8 84.7 µM | Malme-3M > 100 µM | SF-295 > 100 µM | NCI/ADR-RES > 100 µM | OVCAR-3 > 100 µM | DU-145 > 100 µM | SK-MEL-2 > 100 µM | NCI-H226 > 100 µM | OVCAR-5 > 100 µM | UACC-62 > 100 µM | SNB-75 33.7 µM | IGROV-1 > 100 µM | SK-OV-3 > 100 µM | SNB-19 > 100 µM | HCT-116 92.3 µM | KM12 > 100 µM | SK-MEL-5 > 100 µM | NCI-H23 > 100 µM
